US10301288B2, “Kinase inhibitors” (Topivert Pharma Limited, priority 2013, dated 2019)
Like-named read-outs stand apart in the source and are kept apart here.

How the values were obtained:
CYP3A4 = CYP3A4 (Homo sapiens (Human), UniProt P08684); assay: CYP450 time-dependent inhibition, CYP3A4; type: in vitro ADME
Experimental: CYP450 time-dependent inhibition (TDI) assays were performed with test compound at six test concentrations, 0.062 μM to 15 μM (n=2). The test compounds was pre-incubated for 30 minutes with pooled human hepatic microsomes in 0.1 M Tris buffer, pH 7.4, at 37° C. in the presence of cofactor NADPH. A parallel series of incubations (n=2) were prepared with no pre-incubation. Probe substrates were then added (with additional cofactor) and further incubated for the times specified. Concentrations of probe substrates used in the incubations have been optimised to maintain first order reaction conditions.
Reactions were terminated with acetonitrile containing analytical internal standard (carbamazepine), samples then centrifuged to remove microsomal protein and analysed using optimised LC/MS-MS conditions. The MS data were normalised to internal standard and compared to the appropriate solvent controls to determine the amount of metabolite formed from the probe substrate relative to the “uninhibited” controls. The results are quoted as % inhibition.
Variation in probe turnover between plate wells means that inhibition values recorded below 10-15% may not be significant.

[1] = Cryopreserved hepatocyte stability, human; type: in vitro ADME; details: pooled cryopreserved hepatocytes, read-out: Mean intrinsic clearance
Experimental: Formulae Clint(tissue clearance) mL/min/kg=[0.693/t½ (min)]×[1/microsomal protein concentration mg/mL]×[mg microsomes/g liver]×[g liver/kg body weight] […] The incubations were performed at 37° C. with 100 μL, samples taken from the incubation, at 0, 10, 20, 45 and 90 minutes, and reactions terminated by addition of 100 μL of acetonitrile containing carbamazepine as analytical internal standard. […] Half-life values were calculated from the relationship T1/2 (min)=−0.693/λ • where λ was the slope of the Ln concentration vs time curve. • Standard compounds testosterone, midazolam and 4-methylumbelliferone are included in the assay design.
Clint(Tissue Clearance) mL/min/kg=[0.693/t½(min)]×[1/hepatocyte concentration (million cells/mL)]×[million cells/g liver]×[g liver/kg body weight] Clint(Hepatic clearance) mL/min/kg=hepatic blood flow×Clint/(hepatic blood flow+Clint) Hepatic extraction ratio(Eh)=Clint(Hepatic clearance) mL/min/kg/hepatic blood flow (mL/min/kg)

[2] = test system: TNBS-induced colitis in mice; assay: (C) TNBS-induced colitis in mice; type: in vivo, male BDF1 mice; details: for LP inflammation / Ulcer grade: 2 days
Experimental: Non-fasted, 10-12 week old, male BDF1 mice are dosed by oral gavage twice daily with either vehicle (5 mL/kg), reference item (Budesonide 2.5 mg/kg) or test compound (1 or 5 mg/kg) one day before (Day −1) stimulation of the inflammatory response by treatment with 2,4,6-trinitrobenzenesulphonic acid (TNBS) (15 mg/mL in 50% ethanol/50% saline). On Day 0 of the study TNBS (200 μL) is administered intra-colonically via a plastic catheter with BID dosing of the vehicle, reference or test compound continuing for 2 or 4 days. During the study animals are weighed every day and stool observations are made and recorded as a score, based on stool consistency. At the time of sacrifice on Day 2 (or Day 4) the large intestine is removed and the length and weight recorded. Sections of the colon are taken for histopathology scoring to determine disease severity.

B-Raf = B-Raf (Homo sapiens (Human), UniProt P15056); assay: KINOMEscan enzyme binding assay, B-Raf
B-Raf, sequence (P15056 whole entry): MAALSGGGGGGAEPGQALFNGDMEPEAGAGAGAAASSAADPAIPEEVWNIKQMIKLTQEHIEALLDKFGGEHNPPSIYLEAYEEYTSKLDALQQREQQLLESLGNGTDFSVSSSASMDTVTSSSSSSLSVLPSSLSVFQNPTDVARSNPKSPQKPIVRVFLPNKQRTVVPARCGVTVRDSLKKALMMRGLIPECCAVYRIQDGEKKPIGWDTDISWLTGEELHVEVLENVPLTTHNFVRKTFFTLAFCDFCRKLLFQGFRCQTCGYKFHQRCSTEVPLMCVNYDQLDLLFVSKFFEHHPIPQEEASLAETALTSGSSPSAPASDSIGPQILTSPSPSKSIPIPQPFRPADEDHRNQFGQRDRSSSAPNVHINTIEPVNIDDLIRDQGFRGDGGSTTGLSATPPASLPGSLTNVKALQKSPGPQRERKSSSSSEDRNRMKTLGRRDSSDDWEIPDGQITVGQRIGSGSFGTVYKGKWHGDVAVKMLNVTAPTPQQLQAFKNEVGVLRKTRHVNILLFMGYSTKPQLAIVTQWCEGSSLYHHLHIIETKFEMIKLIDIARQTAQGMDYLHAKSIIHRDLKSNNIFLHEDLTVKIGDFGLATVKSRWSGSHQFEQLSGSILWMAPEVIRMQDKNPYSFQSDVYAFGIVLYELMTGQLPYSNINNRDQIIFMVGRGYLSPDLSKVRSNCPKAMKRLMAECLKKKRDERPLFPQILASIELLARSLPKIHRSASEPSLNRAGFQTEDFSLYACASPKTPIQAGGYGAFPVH
Experimental: Kinase enzyme binding activities of compounds disclosed herein may be determined using a proprietary assay which measures active site-directed competition binding to an immobilized ligand (Fabian, M. A. et al., Nature Biotechnol., 2005, 23:329-336). These assays may be conducted by DiscoverX (formerly Ambit; San Diego, Calif.). The percentage inhibition produced by incubation with a test compound may be calculated relative to the non-inhibited control.

[3] = Hepatic microsomal stability, human; type: in vitro ADME; details: pooled liver microsomes, read-out: Mean intrinsic clearance
Experimental: • Microsomal stability assays were performed with incubations of test compounds at 0.1 μM (n=2, final DMSO concentration 0.25%), and carried out using pooled human, […], rat and Cynomolgus macaque hepatic microsomes from Xenotech (Lots 1210153, 0810143 and 1110042, respectively) at 0.25 mg protein/mL in the presence of cofactor, NADPH. The incubations were performed at 37° C. with 100 μL aliquots taken from the incubation, at 0, 2, 5, 10 and 20 minutes (and, in the case of Cynomolgus macaque hepatic microsomes, 40 minutes) and reactions terminated by addition of 100 μL of acetonitrile containing carbamazepine as analytical internal standard. […] Half-life values were calculated from the relationship T1/2 (min)=−0.693/λ • where λ was the slope of the Ln concentration vs time curve. • The in vitro intrinsic clearance, Clint (mL/min/kg), was calculated and scaled to hepatic extraction ratios using the following scaling parameters and formulae.
Formulae Clint(tissue clearance) mL/min/kg=[0.693/t½ (min)]×[1/microsomal protein concentration mg/mL]×[mg microsomes/g liver]×[g liver/kg body weight] […] Half-life values were calculated from the relationship T1/2 (min)=−0.693/λ • where λ was the slope of the Ln concentration vs time curve. • Standard compounds testosterone, midazolam and 4-methylumbelliferone are included in the assay design.

PBMCs = assay: (b) LPS-induced TNFα/IL-8 release in PBMC cells; type: cell-based; details: Homo sapiens

CYP3A4, sequence (P08684 whole entry): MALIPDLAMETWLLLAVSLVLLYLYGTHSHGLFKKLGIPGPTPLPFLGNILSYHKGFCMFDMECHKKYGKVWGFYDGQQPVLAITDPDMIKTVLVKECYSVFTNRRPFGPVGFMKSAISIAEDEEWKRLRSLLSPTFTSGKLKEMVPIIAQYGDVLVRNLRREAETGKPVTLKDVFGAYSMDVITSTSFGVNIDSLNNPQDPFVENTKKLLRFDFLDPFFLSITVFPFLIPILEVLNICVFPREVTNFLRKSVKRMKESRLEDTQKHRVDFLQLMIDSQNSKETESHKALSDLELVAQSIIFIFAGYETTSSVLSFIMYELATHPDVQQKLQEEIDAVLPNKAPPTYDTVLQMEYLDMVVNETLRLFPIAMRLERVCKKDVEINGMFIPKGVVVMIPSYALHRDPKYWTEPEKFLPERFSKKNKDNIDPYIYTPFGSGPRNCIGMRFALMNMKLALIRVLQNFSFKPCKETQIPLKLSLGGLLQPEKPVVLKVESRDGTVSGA

- IC50 (CYP3A4; CYP3A4, 0 min preincubation): > 15000 nM
- IC50 (CYP3A4; CYP3A4, 30 min preincubation): 7700 nM
- inhibition at 0 min, 15 µM (CYP3A4; human, pooled human liver microsomes, pH 7.4, CYP3A4, 0 min preincubation, 15 μM, read-out: 15 μM % Inh): 2%
- inhibition at 30 min, 15 µM (CYP3A4; human, pooled human liver microsomes, pH 7.4, CYP3A4, 30 min preincubation, 15 μM, read-out: 15 μM % Inh): 52%
- hepatocyte CLint at 0.1 μM [1]: 37 µL/min/1e6 cells
- effect on the binding of B-Raf to its standard ligand (B-Raf): did not have any effect
- microsomal CLint at 0.1 μM [3]: > 554 µL/min/mg
SMILES: C#Cc1cc(Nc2nccc(Oc3ccc(NC(=O)Nc4cc(C(C)(C)C)nn4-c4ccc(C)cc4)c4ccccc34)n2)cc(C(=O)NCCOCCOCCOC)c1 [Example 2, 3-((4-((4-(3-(3-(tert-Butyl)-1-(p-tolyl)-1H-pyrazol-5-yl)ureido)naphthalen-1-yl)oxy)pyrimidin-2-yl)amino)-5-ethynyl-N-(2-(2-(2-methoxyethoxy)ethoxy)ethyl)-benzamide]
- LP inflammation ([2]; 1 mg/kg oral BID): 2.9 ± 0.3
- Ulcer grade ([2]; 1 mg/kg oral BID): 3.5 ± 0.4
- LP inflammation ([2]; 5 mg/kg oral BID): 2.2 ± 0.4
- Ulcer grade ([2]; 5 mg/kg oral BID): 3.0 ± 0.5
- ulcer grade and epithelial repair compared to the vehicle control (histopathology) ([2]; dosed orally at 5 mg/kg): marked improvements in ulcer grade and epithelial repair
- inflammatory cell infiltrate in the reticular and lamina propria zones (histopathology) ([2]; oral dosing): marked reduction
- IC50 (PBMCs; read-out: IC50 for Inhibition of Cytokine Release, IL-8): 2 nM
- IC50 (PBMCs; read-out: IC50 for Inhibition of Cytokine Release, TNFα): 0.7 nM
